# Where a name gives a salt, the structure may show the parent alone.
# Assays:
# [1] = tested on: mouse macrophages (bone marrow derived, ABCA1 fl/fl WT) treated with 5% CSE; experiment: Mouse macrophages treated with 5% CSE with or without LXR agonist (RT-PCR, Western blot, zymography); type: cell-based; conditions: bone marrow derived macrophages, 5% CSE, LXR agonist 10 μM
# Procedure: To prepare cigarette (CSE), the smoke from one cigarette (1.1 mg of nicotine, 15 mg of tar) was passed through 25 mls of phosphate buffered saline (PBS) (Mercer et al., 2004). The pH of the extracted solution was adjusted to 7.4 and then filtered (Mercer et al., 2004). CSE was added to the media at concentrations up to 5% (vol/vol) (Mercer et al., 2004).
# In these experiments both mouse peritoneal and mouse bone marrow derived macrophages (BMdM) were utilized. Mouse peritoneal macrophages were isolated from peritoneal cavities of 3% thioglycolate injected mice on the 5th day from injection. To compare expression of genes in vitro and in vivo peritoneal macrophages were isolated from mice exposed to room air and cigarette smoke. For in vitro analysis cells were seeded on culture plates for 24 h and then treated with CSE. For in vivo analysis cells were collected from peritoneal cavity and mRNA was directly isolated. Mouse BMdMs were obtained from the following mice: ABCA1 fl/fl in a C57/BL6 background. Briefly, mice were first sacrificed by CO2 asphyxiation followed by cervical dislocation. After sacrificing the mouse the legs were amputated and the excess muscle tissue was removed so as to completely expose the femur and tibia, which were cleaned carefully. These samples were left in sterile PBS for the duration of the procedure. The cavity bones were then flushed with 10 ml of PBS using 26G needle. The obtained cells were then counted (usually 100-150 million cells per mouse) and centrifuged for 5 min at 2600 rpm. Hematopoietic cells can be separated by plastic adhesion; therefore the cells were incubated in petri dishes containing DMEM culture media and supplemented with 10% FBS and 1% antibiotics). Non-adherent progenitor cells were then collected after 2 hours of incubation in culture media and then seeded at a concentration of 4 million cells/ml in fresh culture media, supplemented with L-cell conditioned media containing macrophage colony stimulating factor (M-CSF) at a concentration of 20%. Approximately after 7-10 days of plating the cells become fully differentiated into macrophages and were ready for subsequent experiments. After treatment the culture supernatants, proteins, and total RNA were collected for analysis. […]
# Total RNA was extracted from specimens of lung tissue 0.3 cm^3 in size with the use of the RNeasy kit (Qiagen, Germantown, Md.) (Goldklang et al., 2012). The RNA was then further processed to obtain cDNA, which was used for Real Time (RT) PCR analysis. TaqMan gene expression assays (Applied Biosystems, Carlsbad, Calif.) were performed to assess gene-transcript levels with the use of an ABI Prism 7900HT Sequence Detection System (Applera, Foster City, Calif.) (Goldklang et al., 2012). The following primers were used to check the respective gene expression: ABCA1 (Hs01059118_m1), ABCG1 (Hs00245154_m1), MMP-9 (Mm00442991_m1), IL-1β (Mm00434227_g1), TNF-α (Mm00443260_g1) and GAPDH (4352932E) from TaqMan Gene Expression Assays, Applied Biosystems, CA. β-actin was used as a control since it is a housekeeping gene.
# The lungs of mice (-10 mg) were homogenized in 1 ml of Radioimmunoprecipitation assay (RIPA) buffer, and centrifuged at 14,000 g for 10 min. The protein concentration of each sample was measured using a Bradford reagent. The required amount of each sample was then used for western blot analysis, so that the concentration was equal for all samples. Proteins were first separated on the basis of molecular weight via sodium dodecyl sulphate polyacrylamide gel electrophoresis (SDS-PAGE). The same gel was then transferred onto a nitro cellulose membrane with the help of electric current (or electroblotting) that transfers the protein from polyacrylamide gel to the membrane. This membrane was then incubated in the solution containing primary antibodies, specific for the proteins of interest, ABCA1 and ABCG1, followed by the use of a secondary antibody that allowed the detection of protein by chemiluminescent. […]
# alveolar macrophages = conditions: in vitro; cited from earlier work
# [2] = tested on: murine disease models of atherosclerosis; conditions: mouse, in vivo; cited from earlier work
Compound,MMP9 expression (mRNA) after smoke exposure [1],"CXC10, CCL5, and IL-10 production (alveolar macrophages)","production of TNFα, IL-1β, or CXCL8 (alveolar macrophages)",cholesterol level in serum and liver [2],development of atherosclerosis [2]
"O=C(O)Cc1cccc(OCCCN(Cc2cccc(C(F)(F)F)c2Cl)CC(c2ccccc2)c2ccccc2)c1 [GW3965, 3-[3-[N-(2-Chloro-3-trifluoromethylbenzyl)-(2,2-diphenylethyl)amino]propyloxy]phenylacetic acid hydrochloride]",able to block,anti-inflammatory effects,did not significantly suppress,lowers,inhibits
CON(C)C(=O)CC[C@@H](C)[C@H]1CC[C@H]2[C@@H]3C[C@H](O)[C@@H]4C[C@H](O)CC[C@]4(C)[C@H]3CC[C@]12C [hypocholamide],,,,lowers,inhibits
